{"source": "ChEMBL document CHEMBL2095176", "about": "“GSK Tuberculosis Screening Data”", "tested_on": "Mycobacterium tuberculosis variant bovis BCG", "experiment": "microbe, parasite or virus in culture", "assay_type": "functional", "data": [{"smiles": "O=C(c1ccc(-c2cccc(OCCN3CCC(c4ccccc4)CC3)c2)cc1)N1CCCC1", "values": [{"measurement": "MIC90", "value": 4.3, "unit": "µM"}]}, {"smiles": "CCn1c(NC(=O)Cc2ccc(Cl)cc2)nc2ccccc21", "values": [{"measurement": "MIC90", "value": 9.8, "unit": "µM"}]}, {"smiles": "COc1cc2ccccc2cc1C(=O)NCc1cccc(-c2ccccc2OC)c1", "values": [{"measurement": "MIC90", "value": 3.6, "unit": "µM"}]}]}
